Results: US20180256673A1, “METHODS FOR TREATING FUNGAL INFECTIONS” (priority 2015, published 2018)
≈ marks a conversion by molar mass, not a printed value. Starred links: 1 amine or outer side, 2 acyl side, 3 side chain; linkers in the order of their positions; H or OH if unused. Positions of bridges follow the written chain, without caps; N, C: chain ends. Non-standard residues stand in square brackets, D forms with d. Residues, ends and D or L forms follow the SMILES beside them. *: point of attachment. hTyr(3S-OH,4S-OH,3'-OSO3H) = N[C@H](C(=O)O)[C@H](O)[C@@H](O)c1ccc(O)c(OS(=O)(=O)O)c1; Orn(4R-OH,5R-OH) = O=C([C@H](C[C@@H](O)[C@@H](O)N[*:3])N[*:1])[*:2]; Pro(3S-OH,4S-Me) = C[C@H]1CN[C@H](C(=O)O)[C@H]1O; X1 = CCCCCOc1ccc(-c2cc(-c3ccc(C(=O)*)cc3)no2)cc1; Gln(3R-OH) = NC(=O)C[C@@H](O)[C@H](N)C(=O)O; Hyp = O=C(O)[C@@H]1C[C@@H](O)CN1

Tests used:
[1] = tested on: C. albicans vaginal isolates; experiment: Susceptibility testing of VVC clinical isolates at pH 7 and 4 (CLSI M27-A3); assay type: cell-based, Candida albicans; conditions: Candida albicans
[2] = tested on: C. glabrata vaginal isolates; experiment: as above; assay type: cell-based, Candida glabrata; conditions: Nakaseomyces glabratus
[3] = tested on: C. parapsilosis vaginal isolates; experiment: as above; assay type: cell-based, Candida parapsilosis
[4] = tested on: C. tropicalis vaginal isolates; experiment: as above; assay type: cell-based; conditions: Candida tropicalis
Candida parapsilosis = experiment: Broth microdilution of invasive fungal isolates (CLSI M27-A3/M38-A2); assay type: cell-based
Candida krusei = experiment: as above; assay type: cell-based
Candida dubliniensis = experiment: as above; assay type: cell-based

## CCCCCOc1ccc(-c2cc(-c3ccc(C(=O)N[C@H]4C[C@@H](O)[C@@H](O)NC(=O)[C@@H]5[C@@H](O)[C@@H](C)CN5C(=O)[C@H]([C@H](O)CC(N)=O)NC(=O)[C@H]([C@H](O)[C@@H](O)c5ccc(O)c(OS(=O)(=O)O)c5)NC(=O)[C@@H]5C[C@@H](O)CN5C(=O)[C@H]([C@@H](C)O)NC4=O)cc3)no2)cc1 [MCF, micafungin] (X1-[Orn(4R-OH,5R-OH)]T[Hyp][hTyr(3S-OH,4S-OH,3'-OSO3H)][Gln(3R-OH)][Pro(3S-OH,4S-Me)]; lactam 1-C)
[1]; 24 h, pH 4
  MIC90: 0.125 µg/mL (≈ 0.0984 µM)
[1]; 24 h, pH 7
  MIC90: 0.008 µg/mL (≈ 0.0063 µM)
[1]; 48 h, pH 4
  MIC90: 0.25 µg/mL (≈ 0.197 µM)
[1]; 48 h, pH 4, fluconazole-resistant isolate 1, pH 4
  MIC: 0.016 µg/mL (≈ 0.0126 µM)
[1]; 48 h, pH 4, fluconazole-resistant isolate 2, pH 4
  MIC: 0.016 µg/mL (≈ 0.0126 µM)
[1]; 48 h, pH 4, fluconazole-resistant isolate 3, pH 4
  MIC: 0.016 µg/mL (≈ 0.0126 µM)
[1]; 48 h, pH 4, fluconazole-resistant isolate 4, pH 4
  MIC: 0.03 µg/mL (≈ 0.0236 µM)
[1]; 48 h, pH 4, fluconazole-resistant isolate 5, pH 4
  MIC: 0.016 µg/mL (≈ 0.0126 µM)
[1]; 48 h, pH 4, fluconazole-resistant isolate 6, pH 4
  MIC: 0.03 µg/mL (≈ 0.0236 µM)
[1]; 48 h, pH 4, fluconazole-resistant isolate 7, pH 4
  MIC: 0.25 µg/mL (≈ 0.197 µM)
[1]; 48 h, pH 4, fluconazole-resistant isolate 8, pH 4
  MIC: 0.06 µg/mL (≈ 0.0472 µM)
[1]; 48 h, pH 4, fluconazole-resistant isolate 9, pH 4
  MIC: 0.125 µg/mL (≈ 0.0984 µM)
[1]; 48 h, pH 4, fluconazole-resistant isolate 10, pH 4
  MIC: 0.06 µg/mL (≈ 0.0472 µM)
[1]; 48 h, pH 7
  MIC90: 0.03 µg/mL (≈ 0.0236 µM)
[1]; 48 h, pH 7, fluconazole-resistant isolate 1, pH 7
  MIC: 0.008 µg/mL (≈ 0.0063 µM)
[1]; 48 h, pH 7, fluconazole-resistant isolate 2, pH 7
  MIC: 0.016 µg/mL (≈ 0.0126 µM)
[1]; 48 h, pH 7, fluconazole-resistant isolate 3, pH 7
  MIC: 0.008 µg/mL (≈ 0.0063 µM)
[1]; 48 h, pH 7, fluconazole-resistant isolate 4, pH 7
  MIC: 0.008 µg/mL (≈ 0.0063 µM)
[1]; 48 h, pH 7, fluconazole-resistant isolate 5, pH 7
  MIC: 0.06 µg/mL (≈ 0.0472 µM)
[1]; 48 h, pH 7, fluconazole-resistant isolate 6, pH 7
  MIC: 0.008 µg/mL (≈ 0.0063 µM)
[1]; 48 h, pH 7, fluconazole-resistant isolate 7, pH 7
  MIC: 0.06 µg/mL (≈ 0.0472 µM)
[1]; 48 h, pH 7, fluconazole-resistant isolate 8, pH 7
  MIC: 0.008 µg/mL (≈ 0.0063 µM)
[1]; 48 h, pH 7, fluconazole-resistant isolate 9, pH 7
  MIC: 0.06 µg/mL (≈ 0.0472 µM)
[1]; 48 h, pH 7, fluconazole-resistant isolate 10, pH 7
  MIC: 0.008 µg/mL (≈ 0.0063 µM)
[2]; 24 h, pH 4
  MIC90: 0.016 µg/mL (≈ 0.0126 µM)
[2]; 24 h, pH 7
  MIC90: 0.008 µg/mL (≈ 0.0063 µM)
[2]; 48 h, pH 4
  MIC90: 0.03 µg/mL (≈ 0.0236 µM)
[2]; 48 h, pH 7
  MIC90: 0.016 µg/mL (≈ 0.0126 µM)
[3]; 24 h, pH 4
  MIC90: 0.5 µg/mL (≈ 0.394 µM)
[3]; 24 h, pH 7
  MIC90: 1 µg/mL (≈ 0.787 µM)
[3]; 48 h, pH 4
  MIC90: 1 µg/mL (≈ 0.787 µM)
[3]; 48 h, pH 7
  MIC90: 2 µg/mL (≈ 1.57 µM)
[4]; 24 h, pH 4
  MIC90: 0.06 µg/mL (≈ 0.0472 µM)
[4]; 24 h, pH 7
  MIC90: 0.016 µg/mL (≈ 0.0126 µM)
[4]; 48 h, pH 4
  MIC90: 0.06 µg/mL (≈ 0.0472 µM)
[4]; 48 h, pH 7
  MIC90: 0.03 µg/mL (≈ 0.0236 µM)
Candida parapsilosis; 92 isolates
  Cumulative % of isolates inhibited at MIC 0.5 μg/mL: (10.9) %
  Cumulative % of isolates inhibited at MIC 1 μg/mL: (72.8) %
  Cumulative % of isolates inhibited at MIC 2 μg/mL: (100.0) %
  Number of isolates inhibited at MIC 0.5 μg/mL: 10
  Number of isolates inhibited at MIC 1 μg/mL: 57
  Number of isolates inhibited at MIC 2 μg/mL: 25
Candida parapsilosis; Lodderomyces parapsilosis
  MIC50: 1 µg/mL (≈ 0.787 µM)
  MIC90: 2 µg/mL (≈ 1.57 µM)
Candida krusei; 16 isolates
  Cumulative % of isolates inhibited at MIC 0.06 μg/mL: (50.0) %
  Cumulative % of isolates inhibited at MIC 0.12 μg/mL: (100.0) %
  Number of isolates inhibited at MIC 0.06 μg/mL: 8
  Number of isolates inhibited at MIC 0.12 μg/mL: 8
Candida krusei; Pichia kudriavzevii
  MIC50: 0.06 µg/mL (≈ 0.0472 µM)
  MIC90: 0.12 µg/mL (≈ 0.0945 µM)
Candida dubliniensis; 11 isolates
  Cumulative % of isolates inhibited at MIC 0.015 μg/mL: (27.3) %
  Cumulative % of isolates inhibited at MIC 0.03 μg/mL: (100.0) %
  Number of isolates inhibited at MIC 0.015 μg/mL: 3
  Number of isolates inhibited at MIC 0.03 μg/mL: 8
Candida dubliniensis; Candida dubliniensis
  MIC50: 0.03 µg/mL (≈ 0.0236 µM)
  MIC90: 0.03 µg/mL (≈ 0.0236 µM)
